Molecular target: T1, TNKS2 (tankyrase 2) (Homo sapiens, UniProt Q9H2K2)
T1 construct: recombinant His-tagged human TNKS2 poly(adenosine diphosphate)-ribose polymerase (PARP) domain, baculovirus-expressed
T1 sequence (Q9H2K2 946-1162 limits assumed): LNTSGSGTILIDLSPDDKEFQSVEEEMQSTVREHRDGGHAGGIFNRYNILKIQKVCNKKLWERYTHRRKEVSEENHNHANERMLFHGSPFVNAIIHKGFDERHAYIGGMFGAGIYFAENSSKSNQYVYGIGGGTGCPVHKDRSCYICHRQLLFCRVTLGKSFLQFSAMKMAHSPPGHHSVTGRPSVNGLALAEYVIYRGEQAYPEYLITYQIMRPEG
Assay: auto-PARsylation assay with purified PARP domain on Ni2+-coated Flashplate, radioactive scintillation readout
Format: biochemical

SMILES: CCc1cc2ccc(C(C)(C#N)Cc3cccc(C#N)c3)cc2[nH]c1=O (single isomer, unassigned) [JNJ-BJ, (R or S)-3-[2-cyano-2-(3-ethyl-2-oxo-1H-quinolin-7-yl)propyl]benzonitrile]
- IC50: 130 nM
